Several values for one entry are separate records, joined by “and”; a condition that tells them apart may be missing. Equal entries are not always repeated. Where two headings read alike, the source gives them in different places.
Columns and labels:
primary neurons [1] = test: Cytotoxicity / neuronal cell death in the presence of NSP5 (PI/DAPI)
[2] = Unbound fraction (fu) in mouse plasma; assay type: in vitro ADME
primary neurons [3] = test: Effect of compounds on neuronal cell death caused by NSP5 (Example 6); assay type: cell-based, mouse; settings: 10 μM, 48 hours
[4] = Tissue (brain/lung) exposure, IP administration; assay type: in vivo, mouse; settings: for Unbound Brain Parenchyma Concentration, individual / Unbound Plasma Concentration, individual / B:P ratio (brain:plasma), individual / L:P ratio, individual / Unbound B:P ratio (Kp,uu), individual / concentration / Kp at 0.5 h / concentration at 0.5 h / Kp uu at 0.5 h / Kp at 4 h / concentration at 4 h / Kp uu at 4 h / concentration at 24 h: 10 mg/kg; for Kp at 0.5 h / concentration at 0.5 h / Kp uu at 0.5 h / Kp at 4 h / concentration at 4 h / Kp uu at 4 h / concentration at 24 h: mouse, ip
Protocol: For the tissue collection, at 0.5, 4 and 24 h following IP administration, mice were anaesthetised (using gaseous isoflurane). Immediately after the submandibular bleed, mice were killed via cervical dislocation and the whole brain and lung were removed from each carcase. All these tissues were blotted to remove excess blood, placed into pre-weighed polypropylene vials and weighed. Tissue samples were snap frozen in dry ice and subsequently stored frozen at −80 °C until analysis. A summary of the bioanalytical method is included in Table 5.
(§1) Tissue: Pre-weighed tissue samples (brain and lung) were homogenised using a gentleMACS™ Octo Dissociator (Miltenyi Biotec, Macquarie Park, Australia) in buffer containing an EDTA/potassium fluoride solution (0.1 M/4 mg/mL) as a stabilisation cocktail to minimise the potential for ex vivo degradation (3 mL cocktail/g tissue). The tissue homogenate was briefly centrifuged (RCF=79×g) for 10 seconds to separate the foam layer before transferring an aliquot of the tissue homogenate (200 μL) to a fresh Eppendorf tube for sample extraction. Calibration standards were prepared by spiking blank brain and lung homogenate (200 μL) with the solution standards (10 μL) and the internal standard (10 μL). Study samples (for all tissue types) were similarly prepared, except that acetonitrile (10 μL) was added instead of solution standards to maintain the same volume. Protein precipitation was carried out by the addition of a 3-fold volume of acetonitrile, followed by vortex mixing and centrifugation (RCF=9391×g) for 3 min to recover the supernatant for analysis.
The concentration of compound 22 in brain or lung parenchyma was calculated on the basis of the measured concentration in brain or lung homogenate, after correcting for the contribution of compound contained within the vascular space of brain or lung samples as follows:
Ctissue=Ctissue homogentate−Ctissue vasculature where Ctissue vasculature=Cplasma×Vp • Ctissue=concentration of compound in brain or lung parenchyma (μM) • Ctissue homogenate=concentration of compound in brain or lung homogenate (μM) • Ctissue vasculature=concentration of compound in brain or lung vasculature (μM) • Cplasma=concentration of compound in plasma (μM)
Vp=brain plasma volume (0.017 mL/g for male C57BL/6 mice; Nicolazzo et al. (2010), Clinical and Experimental Pharmacology and Physiology, 37: 647-649) or lung plasma volume (0.16 mL/g of tissue, Boswell et al. (2014), Molecular Pharmaceutics, 11: 1591-1598)
Concentrations in brain or lung parenchyma were converted from units of ng/g to μM assuming a specific gravity of 1.
For each mouse, the tissue (brain or lung)-to-plasma concentration ratio (based on total concentrations in each matrix) was calculated as: […]
For brain uptake, the unbound brain-to-plasma partition coefficient (based on unbound concentrations in each matrix) was calculated as: […]

[5] = Stability in brain and lung homogenates; assay type: in vitro ADME, mouse; settings: sample processing (15 min), EDTA/potassium fluoride
Protocol: as §1

[6] = 0.5 h, IP 10 mg/kg, individual mice
[7] = 0.5 h, IP 10 mg/kg, individual mice, 30 min
[8] = 4.0 h, IP 10 mg/kg, individual mice
[9] = 4.0 h, IP 10 mg/kg, individual mice, 240 min

## NC(=O)C1CCN(c2ncccc2CNCc2cccc3[nH]ccc23)CC1 [Compound 22]
Primary neurons [1]; 0.4, 1, 2, 10 or 50 μM, 48 hours
  Reduction of neuronal cell death caused by NSP5: selectively reduced neuronal cell death caused by NSP5
Primary neurons [1]; therapeutic concentrations (nM to low μM)
  Cell death caused by compound: did not cause any cell death
[2]
  fraction unbound: 0.547
Primary neurons [3]
  Reduction of neuronal cell death caused by NSP5: greatest activity
[4]; [6]
  Unbound Brain Parenchyma Concentration, individual: 0.160 µM and 0.138 µM and 0.169 µM
  Unbound Plasma Concentration, individual: 1050 nM and 704 nM and 841 nM
[4]; [7]
  B:P ratio (brain:plasma), individual: 0.23
  L:P ratio, individual: 2.8 and 2.6
  Unbound B:P ratio (Kp,uu), individual: 0.20
[4]; 0.5 h, IP 10 mg/kg, individual mice, 30 min, read-out: Total Brain Parenchyma Concentration, individual
  concentration: 291 nM
[4]; 0.5 h, IP 10 mg/kg, individual mice, 30 min, read-out: Total Lung Parenchyma Concentration, individual
  concentration: 3560 nM and 4000 nM
[4]; 0.5 h, IP 10 mg/kg, individual mice, 30 min, read-out: Total Plasma Concentration, individual
  concentration: 1290 nM and 1540 nM
[4]; 0.5 h, IP 10 mg/kg, mean
  Unbound Brain Parenchyma Concentration, mean: 0.155 µM
  Unbound Plasma Concentration, mean: 866 nM
[4]; [8]
  Unbound Brain Parenchyma Concentration, individual: 0.0292 µM and 0.0285 µM
  Unbound Plasma Concentration, individual: 4.3 nM and 3.3 nM
[4]; [9]
  B:P ratio (brain:plasma), individual: 9.91
  L:P ratio, individual: 68.6
  Unbound B:P ratio (Kp,uu), individual: 8.59
[4]; 4.0 h, IP 10 mg/kg, individual mice, 240 min, read-out: Total Brain Parenchyma Concentration, individual
  concentration: 60.1 nM
[4]; 4.0 h, IP 10 mg/kg, individual mice, 240 min, read-out: Total Lung Parenchyma Concentration, individual
  concentration: 416 nM
[4]; 4.0 h, IP 10 mg/kg, individual mice, 240 min, read-out: Total Plasma Concentration, individual
  concentration: 6.1 nM
[4]; 4.0 h, IP 10 mg/kg, mean
  Unbound Brain Parenchyma Concentration, mean: 0.0288 µM
  Unbound Plasma Concentration, mean: 3.8 nM
[4]; 24 h, IP 10 mg/kg, individual mice
  Unbound Brain Parenchyma Concentration, individual: 0.0060 µM and 0.0005 µM
[4]; 24 h, IP 10 mg/kg, individual mice, 1440 min, read-out: Total Lung Parenchyma Concentration, individual
  concentration: 2.5 nM and 1.6 nM and 0.7 nM
[4]; IP 10 mg/kg
  Apparent tissue-to-plasma ratio (B:P or L:P) at 4 h versus 0.5 h: substantially higher than that at 0.5 h
  Duration of measurable concentrations in brain: ≤ 4 h
  Duration of measurable concentrations in lung: up to 24 hours
[4]; IP 10 mg/kg, mean
  Unbound Brain Parenchyma Concentration, mean: 0.0033 µM
[4]; brain, 0.5 h, individual mice, read-out: B:P ratio (brain:plasma), individual
  Kp at 0.5 h: 0.18
[4]; brain, 0.5 h, individual mice, read-out: Total Brain Parenchyma Concentration, individual
  concentration at 0.5 h: 337 nM
[4]; brain, 0.5 h, individual mice, read-out: Unbound B:P ratio (Kp,uu), individual
  Kp uu at 0.5 h: 0.15
[4]; brain, 0.5 h, mean, read-out: B:P ratio (brain:plasma), mean
  Kp at 0.5 h: 0.21
[4]; brain, 0.5 h, mean, read-out: Total Brain Parenchyma Concentration, mean
  concentration at 0.5 h: 328 nM
[4]; brain, 0.5 h, mean, read-out: Unbound B:P ratio (Kp,uu), mean
  Kp uu at 0.5 h: 0.18
[4]; brain, 4.0 h, individual mice, read-out: B:P ratio (brain:plasma), individual
  Kp at 4 h: 7.9
[4]; brain, 4.0 h, individual mice, read-out: Total Brain Parenchyma Concentration, individual
  concentration at 4 h: 61.6 nM
[4]; brain, 4.0 h, individual mice, read-out: Unbound B:P ratio (Kp,uu), individual
  Kp uu at 4 h: 6.84
[4]; brain, 4.0 h, mean, mouse 16 excluded, read-out: Total Brain Parenchyma Concentration, mean
  concentration at 4 h: 60.9 nM
[4]; brain, 4.0 h, mean, read-out: B:P ratio (brain:plasma), mean
  Kp at 4 h: 8.9
[4]; brain, 4.0 h, mean, read-out: Unbound B:P ratio (Kp,uu), mean
  Kp uu at 4 h: 7.72
[4]; brain, 24 h, mean, read-out: Total Brain Parenchyma Concentration, mean
  concentration at 24 h: 6.9 nM
[4]; lung, 0.5 h, individual mice, read-out: L:P ratio, individual
  Kp at 0.5 h: 2
[4]; lung, 0.5 h, individual mice, read-out: Total Lung Parenchyma Concentration, individual
  concentration at 0.5 h: 3830 nM
[4]; lung, 0.5 h, mean, read-out: L:P ratio, mean
  Kp at 0.5 h: 2.5
[4]; lung, 0.5 h, mean, read-out: Total Lung Parenchyma Concentration, mean
  concentration at 0.5 h: 3800 nM
[4]; lung, 4.0 h, individual mice, read-out: L:P ratio, individual
  Kp at 4 h: 45.7
[4]; lung, 4.0 h, individual mice, read-out: Total Lung Parenchyma Concentration, individual
  concentration at 4 h: 356 nM
[4]; lung, 4.0 h, mean, mouse 16 excluded, read-out: Total Lung Parenchyma Concentration, mean
  concentration at 4 h: 386 nM
[4]; lung, 4.0 h, mean, read-out: L:P ratio, mean
  Kp at 4 h: 57.1
[4]; lung, 24 h, mean, read-out: Total Lung Parenchyma Concentration, mean
  concentration at 24 h: 2.1 nM
[4]; plasma, 0.5 h, individual mice, read-out: Total Plasma Concentration, individual
  concentration at 0.5 h: 1920 nM
[4]; plasma, 0.5 h, mean, read-out: Total Plasma Concentration, mean
  concentration at 0.5 h: 1580 nM
[4]; plasma, 4.0 h, individual mice, read-out: Total Plasma Concentration, individual
  concentration at 4 h: 7.8 nM
[4]; plasma, 4.0 h, mean, mouse 16 excluded, read-out: Total Plasma Concentration, mean
  concentration at 4 h: 6.9 nM
[5]
  Stability in brain and lung homogenates: stable

From patent publication US20260355171A1, “INHIBITORS AND USES THEREFOR” (priority 2022, published 2026)
